Measured values taken from PMC5865651, “Novel inhibitor candidates of TRPV2 prevent damage of dystrophic myocytes and ameliorate against dilated cardiomyopathy in a hamster model” (Oncotarget, 2018).

Columns and labels:
human TRPV2 (hTRPV2) = biological target: T1, human TRPV2 (hTRPV2) (Homo sapiens, UniProt Q9Y5S1); assay: CaCl2 (5 mM)-induced increase in [Ca2+]i in CHO cells expressing hTRPV2; format: cell-based; set-up: expressed in transfected cells; host or cells: CHO cells; conditions: compound 15 μM
T1 sequence (Q9Y5S1 1-764): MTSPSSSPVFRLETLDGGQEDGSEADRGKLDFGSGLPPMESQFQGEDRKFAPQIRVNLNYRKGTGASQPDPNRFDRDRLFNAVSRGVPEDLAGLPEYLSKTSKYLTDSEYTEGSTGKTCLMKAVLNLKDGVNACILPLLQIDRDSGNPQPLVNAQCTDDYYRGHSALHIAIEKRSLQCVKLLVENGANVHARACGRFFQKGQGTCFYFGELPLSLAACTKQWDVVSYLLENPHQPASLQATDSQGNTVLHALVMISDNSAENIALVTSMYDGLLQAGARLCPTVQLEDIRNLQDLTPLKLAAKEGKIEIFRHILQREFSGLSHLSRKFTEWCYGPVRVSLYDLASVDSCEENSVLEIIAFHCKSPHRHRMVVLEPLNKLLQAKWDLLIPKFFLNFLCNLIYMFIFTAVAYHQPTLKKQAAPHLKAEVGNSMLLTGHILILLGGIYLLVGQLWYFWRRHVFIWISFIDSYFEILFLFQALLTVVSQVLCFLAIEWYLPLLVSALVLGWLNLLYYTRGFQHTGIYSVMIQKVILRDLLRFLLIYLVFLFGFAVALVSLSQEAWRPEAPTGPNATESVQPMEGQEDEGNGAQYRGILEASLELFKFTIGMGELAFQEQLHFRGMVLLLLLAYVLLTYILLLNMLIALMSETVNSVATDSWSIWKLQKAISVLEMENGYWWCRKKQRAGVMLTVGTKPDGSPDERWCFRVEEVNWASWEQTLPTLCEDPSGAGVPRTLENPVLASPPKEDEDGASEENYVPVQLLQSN
Protocol: Figure 4 Effects of inhibitor compounds on the Ca^2+ response of cells expressing hTRPV1, hTRPV2, or hTRPC1 (A) Effect of compounds on CaCl2 (5 mM)-induced peak fluorescence ratio in non-transfected (nt) or hTRPV2-transfected CHO cells. The extracellular Ca^2+-dependent increase in the ratio of fura-2 fluorescence intensity at 340/380 nm (ΔR, 2 min after addition of chemicals) was plotted as ΔR/R0 after normalising to the initial fluorescence ratio (R0). […] Solid bar, no inhibitor. (B) Effect of compounds on 2-APB (1 mM)/high extracellular CaCl2-induced peak fluorescence ratio in nt or hTRPV1-transfected HEK293 cells. […] (C) Effect of compounds on store-operated Ca^2+ entry in nt or hTRPC1-transfected HEK293 cells. Cells were treated with the endoplasmic reticulum Ca^2+ pump inhibitor thapsigargin and exposed to CaCl2 and the indicated compounds. ΔR was measured 2 min after the addition of CaCl2. […]
[Ca^2+]i was measured by a ratiometric fluorescence method as previously described. […] Fura-2-AM fluorescence was measured using an Aquacosmos fluorescence image processor (Hamamatsu Photonics, Hamamatsu, Japan). The time-course data are presented as the ratio of fluorescence at an excitation wavelength of 340 nm to that at 380 nm. The increase in the fluorescence ratio induced by the TRPV2 agonist 2-APB or high extracellular Ca^2+ (ΔR) was normalized to the initial ratio (R0) before stimulation. […]

[1] = biological target: T2, human Cav1.2/β2/α2δ1 L-type calcium channel (Homo sapiens, UniProt Q13936); assay: L-type Ca2+ current in human Cav1.2/β2/α2δ1 expressing CHO cells (patch clamp); format: cell-based; conditions: CHO cells expressing human Cav1.2/β2/α2δ1 calcium channel, pH 7.4, 15 μM lumin, n = 3, read-out: L-type current, % of control
T2 construct: host or cells: CHO cells (purchased recombinant cell line)
T2 sequence (Q13936 whole entry): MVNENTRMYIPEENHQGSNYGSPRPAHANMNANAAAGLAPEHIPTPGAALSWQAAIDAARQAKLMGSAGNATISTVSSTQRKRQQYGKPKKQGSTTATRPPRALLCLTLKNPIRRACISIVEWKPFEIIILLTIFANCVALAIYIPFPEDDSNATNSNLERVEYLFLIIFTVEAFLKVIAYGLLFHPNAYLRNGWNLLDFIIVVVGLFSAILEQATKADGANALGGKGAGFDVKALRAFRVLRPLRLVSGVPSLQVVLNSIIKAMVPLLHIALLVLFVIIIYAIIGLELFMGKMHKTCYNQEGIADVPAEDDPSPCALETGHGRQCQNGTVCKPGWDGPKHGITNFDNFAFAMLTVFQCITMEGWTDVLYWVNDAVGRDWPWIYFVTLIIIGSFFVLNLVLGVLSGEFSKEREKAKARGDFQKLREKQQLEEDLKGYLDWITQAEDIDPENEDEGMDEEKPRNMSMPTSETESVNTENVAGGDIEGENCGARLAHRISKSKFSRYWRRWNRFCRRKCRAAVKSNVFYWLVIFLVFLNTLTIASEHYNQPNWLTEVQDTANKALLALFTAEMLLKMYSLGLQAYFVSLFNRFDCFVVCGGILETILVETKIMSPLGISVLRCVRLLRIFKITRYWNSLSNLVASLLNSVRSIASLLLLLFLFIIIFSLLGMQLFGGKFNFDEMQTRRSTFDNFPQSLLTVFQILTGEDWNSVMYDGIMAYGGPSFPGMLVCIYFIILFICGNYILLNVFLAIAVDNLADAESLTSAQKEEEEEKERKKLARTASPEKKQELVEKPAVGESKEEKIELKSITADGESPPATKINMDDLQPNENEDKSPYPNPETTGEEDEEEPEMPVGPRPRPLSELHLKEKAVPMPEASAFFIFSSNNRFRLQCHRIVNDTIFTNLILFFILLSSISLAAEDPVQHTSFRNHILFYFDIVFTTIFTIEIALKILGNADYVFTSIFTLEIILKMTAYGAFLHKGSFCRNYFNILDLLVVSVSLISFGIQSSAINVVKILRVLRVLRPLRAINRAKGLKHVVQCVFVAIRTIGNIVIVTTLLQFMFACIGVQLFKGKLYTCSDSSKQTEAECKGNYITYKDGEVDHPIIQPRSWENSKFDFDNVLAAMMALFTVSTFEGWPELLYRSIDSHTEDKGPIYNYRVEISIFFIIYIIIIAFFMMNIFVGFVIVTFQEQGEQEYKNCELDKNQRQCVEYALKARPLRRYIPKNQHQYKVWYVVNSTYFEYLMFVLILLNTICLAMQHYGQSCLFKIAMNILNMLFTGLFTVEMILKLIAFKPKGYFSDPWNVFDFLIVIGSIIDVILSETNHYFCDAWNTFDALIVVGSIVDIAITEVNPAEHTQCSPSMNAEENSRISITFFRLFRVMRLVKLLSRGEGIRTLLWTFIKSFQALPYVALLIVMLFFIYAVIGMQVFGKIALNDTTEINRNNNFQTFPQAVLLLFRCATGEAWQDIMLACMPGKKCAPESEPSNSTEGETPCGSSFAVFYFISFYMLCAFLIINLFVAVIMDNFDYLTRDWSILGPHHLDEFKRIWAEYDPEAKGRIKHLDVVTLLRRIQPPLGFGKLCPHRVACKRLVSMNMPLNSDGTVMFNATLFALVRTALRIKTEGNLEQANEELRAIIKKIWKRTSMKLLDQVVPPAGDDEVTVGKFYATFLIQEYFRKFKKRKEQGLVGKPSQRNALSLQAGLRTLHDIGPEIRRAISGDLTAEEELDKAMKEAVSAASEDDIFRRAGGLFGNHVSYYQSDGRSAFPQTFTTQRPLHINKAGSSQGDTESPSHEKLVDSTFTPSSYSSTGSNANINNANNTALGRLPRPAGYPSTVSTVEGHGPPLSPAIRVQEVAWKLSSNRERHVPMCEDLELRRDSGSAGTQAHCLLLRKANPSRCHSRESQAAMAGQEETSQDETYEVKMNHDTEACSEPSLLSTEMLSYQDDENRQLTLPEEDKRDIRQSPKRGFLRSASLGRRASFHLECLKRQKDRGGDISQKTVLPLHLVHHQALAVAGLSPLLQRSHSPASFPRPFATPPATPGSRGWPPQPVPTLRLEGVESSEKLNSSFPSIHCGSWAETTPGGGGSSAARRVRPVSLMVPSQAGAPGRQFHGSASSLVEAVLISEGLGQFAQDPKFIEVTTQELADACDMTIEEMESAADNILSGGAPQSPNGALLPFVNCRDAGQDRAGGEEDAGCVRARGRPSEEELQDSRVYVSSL
T2 sequence (Q08289 whole entry partner): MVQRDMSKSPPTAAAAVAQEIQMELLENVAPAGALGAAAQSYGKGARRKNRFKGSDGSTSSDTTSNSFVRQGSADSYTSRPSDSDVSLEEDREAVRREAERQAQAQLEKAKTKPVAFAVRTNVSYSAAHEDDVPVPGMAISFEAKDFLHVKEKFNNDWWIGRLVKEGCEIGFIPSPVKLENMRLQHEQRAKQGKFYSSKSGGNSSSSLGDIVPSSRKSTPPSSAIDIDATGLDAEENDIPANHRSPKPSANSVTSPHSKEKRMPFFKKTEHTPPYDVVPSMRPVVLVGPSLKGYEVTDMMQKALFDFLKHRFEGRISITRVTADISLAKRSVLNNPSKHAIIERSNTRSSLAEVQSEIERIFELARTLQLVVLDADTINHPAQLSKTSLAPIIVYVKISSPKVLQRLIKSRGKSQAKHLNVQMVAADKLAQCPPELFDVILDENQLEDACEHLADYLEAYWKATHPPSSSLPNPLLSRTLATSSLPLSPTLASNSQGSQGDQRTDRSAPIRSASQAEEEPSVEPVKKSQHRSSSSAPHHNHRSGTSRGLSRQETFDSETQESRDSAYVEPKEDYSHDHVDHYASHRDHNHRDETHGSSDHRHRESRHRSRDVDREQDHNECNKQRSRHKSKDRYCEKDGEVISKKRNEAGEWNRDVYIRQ
T2 sequence (P54289 25-956 partner limits assumed): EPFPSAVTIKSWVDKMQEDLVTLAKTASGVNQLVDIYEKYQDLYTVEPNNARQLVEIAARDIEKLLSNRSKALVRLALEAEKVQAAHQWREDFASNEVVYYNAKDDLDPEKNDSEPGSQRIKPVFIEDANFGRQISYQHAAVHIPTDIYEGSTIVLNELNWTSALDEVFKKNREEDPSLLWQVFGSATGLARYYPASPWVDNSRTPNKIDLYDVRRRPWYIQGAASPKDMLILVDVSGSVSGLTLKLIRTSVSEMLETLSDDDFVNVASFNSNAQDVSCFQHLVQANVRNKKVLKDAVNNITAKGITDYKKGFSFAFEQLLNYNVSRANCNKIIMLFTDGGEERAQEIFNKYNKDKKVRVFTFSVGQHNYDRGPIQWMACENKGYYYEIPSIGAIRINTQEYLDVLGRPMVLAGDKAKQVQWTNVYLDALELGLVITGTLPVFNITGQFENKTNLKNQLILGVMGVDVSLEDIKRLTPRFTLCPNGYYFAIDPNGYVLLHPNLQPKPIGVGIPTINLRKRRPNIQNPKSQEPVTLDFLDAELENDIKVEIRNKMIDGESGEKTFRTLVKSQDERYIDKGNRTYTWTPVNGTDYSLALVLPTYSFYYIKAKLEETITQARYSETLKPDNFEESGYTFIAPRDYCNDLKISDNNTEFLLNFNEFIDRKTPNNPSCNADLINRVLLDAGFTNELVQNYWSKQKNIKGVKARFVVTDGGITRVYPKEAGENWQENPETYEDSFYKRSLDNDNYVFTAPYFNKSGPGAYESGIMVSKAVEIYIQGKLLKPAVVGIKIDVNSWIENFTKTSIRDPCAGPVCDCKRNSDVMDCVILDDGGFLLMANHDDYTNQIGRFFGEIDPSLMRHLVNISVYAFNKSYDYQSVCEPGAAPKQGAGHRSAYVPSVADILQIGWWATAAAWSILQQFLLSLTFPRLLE
T2 sequence (P54289 957-1103 partner limits assumed): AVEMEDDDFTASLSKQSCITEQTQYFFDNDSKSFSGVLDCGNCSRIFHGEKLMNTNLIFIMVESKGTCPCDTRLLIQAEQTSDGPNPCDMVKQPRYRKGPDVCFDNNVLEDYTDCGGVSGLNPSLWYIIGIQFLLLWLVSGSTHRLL
Protocol: Figure 8 Effect of lumin on the Ca^2+ response and channel activity in HEK293 cells expressing mTRPV2 (A) Inhibition of the 2-APB-induced increase in [Ca^2+]i in HEK293 cells expressing mTRPV2 by lumin. Cells were loaded with fura-2-AM and stimulated with 2-APB (0.3 mM) in the absence or presence of the indicated concentrations of lumin. The fluorescence ratio was measured by a microplate reader and normalized by the maximal value. Data are shown as mean ± SD (n = 5). (B) Lumin blocked the mTRPV2 channel. The current values at −100 mV measured by an every-2-second ramp protocol were plotted. After the current activated by 200 μM 2-APB at pH 6.5 became stable, a mixture of 15 μM lumin and 2-APB was applied to the cells. (C) Effect of lumin on the current-voltage relationship of 2-APB-evoked current. (D) Concentration-dependence of lumin for the inhibition of mTRPV2 current. Data are shown as mean ± SD (n = 3–5) (E) Effect of lumin (15 μM) on L-type Ca^2+ channel activity. The current waveforms of the control cells and the cells 11 minutes after application of 15 μM lumin were superimposed. […]
For the measurement of L-type Ca^2+ currents, human Cav1.2/β2/α2δ1 calcium channel expressing CHO cells were purchased from ChanTest (Cleveland, OH, USA). […] The data were analysed and plotted with Clampfit 9 (Molecular Devices, LLC, Sunnyvale, CA, USA). […]

| effect on Ca2+ influx in response to CaCl2 exposure (human TRPV2 (hTRPV2)) | Compound | activity at 11 min, 15 μM [1] [%] |
| --- | --- | --- |
| not | COc1cccc(OCCn2cc(/C=N/n3cnnc3)c3ccccc32)c1 [B6, 1-{2-[3-((1E)-2-(1,2,4-triazol-4-yl)-2-azavinyl)indolyl]ethoxy}-3-methoxybenzene] |  |
| markedly inhibited | COc1cc(/C=C(\C#N)C(=O)Nc2ccccc2C(=O)O)cc(Cl)c1OC [A3, 2-[(2E)-3-(3-Chloro-4,5-dimethoxyphenyl)-2-cyanoprop-2-enoylamino]benzoic acid] |  |
|  | CCN1C=CC(=CC=C(C=Cc2cc[n+](CC)c3ccccc23)c2cc[n+](CC)c3ccccc23)c2ccccc21.[I-].[I-] [lumin, 4,4′-[3-[2-[1-ethyl-4(1H)-quinolinylidene]ethylidene]-1-propene-1,3-diyl]bis(1-ethylquinolinium) diiodide] | 96.6 ± 8.7 |
